Data set [1] has as its system MRSA (NRS384 strain of USA300). The data set is described as follows: MIC determination for extracellular bacteria in liquid culture. The conditions noted are these: Staphylococcus aureus, read-out: Extracellular MRSA MIC. It is filed as cell-based. As to the method:
The MIC for extracellular bacteria was determined by preparing serial 2-fold dilutions of the antibiotic in Tryptic Soy Broth. Dilutions of the antibiotic were made in quadruplicate in 96 well culture dishes. MRSA (NRS384 strain of USA300) was taken from an exponentially growing culture and diluted to 1×10^4 CFU/mL. The bacteria was cultured in the presence of antibiotic for 18-24 hours with shaking at 37° C. and bacterial growth was determined by reading the Optical Density (OD) at […]. The MIC was determined to be the dose of antibiotic that inhibited bacterial growth by >90%.
(§1) For extracellular bacteria, MRSA was cultured overnight in Tryptic Soy Broth, and the MIC was determined to be the minimum antibiotic dose that prevented growth. For intracellular bacteria, murine peritoneal macrophages were infected with MRSA and cultured in the presence of gentamycin to kill extracellular bacteria. Test antibiotics were added to the culture medium one day post infection, and the total number of surviving intracellular bacteria was determined 24 hours later. The expected serum concentrations for clinically relevant antibiotics was reported in Antimicrobial Agents, Andre Bryskier. ASM Press, Washington D.C. (2005).

Data set [2] deals with intracellular MRSA sequestered inside murine macrophages. The data set is described as follows: MIC determination for intracellular bacteria inside murine peritoneal macrophages. The conditions noted are these: for MIC: Staphylococcus aureus, MRSA, read-out: Intracellular MRSA MIC; for killing of MRSA sequestered inside macrophages: macrophages exposed to clinically achievable concentrations. It is filed as cell-based, Staphylococcus aureus. As to the method:
Intracellular MIC was determined on bacteria that were sequestered inside mouse peritoneal macrophages (see below for generation of murine peritoneal macrophages). Macrophages were plated in 24 well culture dishes at a density of 4×10^5 cells/mL and infected with MRSA at a ratio of 10-20 bacteria per macrophage. Macrophage cultures were maintained in growth media supplemented with 50 ug/mL of gentamycin (an antibiotic that is active only on extracellular bacteria) to inhibit the growth of extracellular bacteria and test antibiotics were added to the growth media 1 day after infection. The survival of intracellular bacteria was assessed 24 hours after addition of the antibiotics. Macrophages were lysed with Hanks Buffered Saline Solution supplemented with 0.1% Bovine Serum Albumin and 0.1% Triton-X, and serial dilutions of the lysate were made in Phosphate Buffered Saline solution containing 0.05% Tween-20. The number of surviving intracellular bacteria was determined by plating on Tryptic Soy Agar plates with 5% defibrinated sheep blood.
Peritoneal macrophages were isolated from the peritoneum of 6-8 week old Balb/c mice (Charles River Laboratories, Hollister, Calif.). To increase the yield of macrophages, mice were pre-treated by intraperitoneal injection with 1 mL of thioglycolate media (Becton Dickinson). The thioglycolate media was prepared at a concentration of 4% in water, sterilized by autoclaving, and aged for 20 days to 6 months prior to use. Peritoneal macrophages were harvested 4 days post treatment with thioglycolate by washing the peritoneal cavity with cold phosphate buffered saline. Macrophages were plated in Dulbecco's Modified Eagle Medium (DMEM) supplemented with 10% Fetal Calf Serum, and 10 mM HEPES, without antibiotics, at a density of 4×10^5 cells/well in 24 well culture dishes. Macrophages were cultured over night to permit adherence to the plate. This assay was also utilized to test intracellular killing in non-phagocytic cell types. MG63 (CRL-1427) and A549 (CCL185) cell lines were obtained from ATCC and maintained in RPMI 1640 tissue culture media supplemented with 10 mM Hepes and 10% Fetal Calf Serum (RPMI-10). HUVEC cells were obtained from Lonza and maintained in EGM Endothelial Cell Complete Media (Lonza, Walkersville, Md.).
as §1

A further data set deals with MRSA. In words: In vitro transfer of infection to MG63 osteoblasts / HBMEC in the presence of vancomycin. It counts as cell-based, Staphylococcus aureus. As to the method:
6-8 week old female A/J mice (Jackson Lab) were infected with 1×10^8 CFU of the NRS384 strain of USA300 by peritoneal injection. The peritoneal wash was harvested 1 day post infection, and the infected peritoneal cells were treated with 50 ug/mL of lysostaphin diluted in Hepes Buffer supplemented with 0.1% BSA (HB buffer) for 30 minutes at 37° C. Peritoneal cells were then washed 2x in ice cold HB buffer. The peritoneal cells were diluted to 1×10^6 cells/mL in RPMI 1640 tissue culture media supplemented with 10 mM Hepes and 10% Fetal Calf Serum, and 5 ug/mL vancomycin. Free MRSA from the primary infection was stored overnight at 4° C. in Phosphate Buffered Saline Solution as a control for extracellular bacteria that were not subject to neutrophil killing.
MG63 cell line was obtained from ATCC (CRL-1427) and maintained in RPMI 1640 tissue culture media supplemented with 10 mM Hepes and 10% Fetal Calf Serum (RPMI-10). HBMEC cells (Catalog #1000) and ECM media (catalog#1001) were obtained from SciencCell Research Labs (Carlsbad, Calif.). Cells were plated in 24 well tissue culture plates and cultured to obtain a confluent layer. On the day of the experiment, the cells were washed once in RPMI (without supplements). MRSA or infected peritoneal cells were diluted in complete RPMI-10 and vancomycin was added at 5 ug/mL immediately prior to infection. Peritoneal cells were added to the osteoblasts at 1×10^6 peritoneal cells/mL. A sample of the cells was lysed with 0.1% triton-x to determine the actual concentration of live intracellular bacteria at the time of infection. The actual titer for all infections was determined by plating serial dilutions of the bacteria on Tryptic Soy Agar with 5% defibrinated sheep blood.
MRSA (free bacteria) was seeded in media, media+vancomycin, or media+vancomycin and plated on a monolayer of MG63 osteoblasts (FIG. 1E) or Human Brain Microvascular Endothelial Cells (HBMEC, FIG. 1F). Plates were centrifuged to promote contact of the bacteria with the monolayer. At each time point, the culture supernatant was collected to recover extracellular bacteria or adherent cells were lysed to release intracellular bacteria.

Another data set concerns USA300. In words: In vivo transfer of infection model in A/J mice (free vs intracellular bacteria). The conditions noted are these: mice infected i.v. with free or intracellular bacteria, examined 4 days after infection. Set-up: species or system Staphylococcus aureus. As to the method: USA300 stocks were prepared for infection from actively growing cultures in tryptic soy broth. Bacteria were washed 3× in phosphate buffered saline (PBS) and aliquots were frozen at −80° C. in PBS 25% glycerol. Intracellular Bacteria Infections: A/J mice were chosen for these experiments because they are easily infected with relatively low doses of MRSA (2×10^6 CFU/mouse). 7 week old female A/J mice were obtained from Jackson Lab and infected by peritoneal injection with 5×10^7 CFU of USA300. Mice were sacrificed 1 day post infection and the peritoneum was flushed with 5 mL of cold PBS. Peritoneal washes were centrifuged for 5 minutes at 1,000 rpm at 4° C. in a table top centrifuge. The cell pellet containing peritoneal cells was collected and cells were treated with 50 ug/mL of lysostaphin (Cell Sciences Inc. Canton Mass., CRL 309C) for 20 minutes at 37° C. to kill contaminating extracellular bacteria. Peritoneal cells were washed 3x in ice cold PBS to remove the lysostaphin. […]
These experiments compared the virulence of intracellular bacteria versus an equivalent dose of free-living planktonic bacteria, and determined whether the intracellular bacteria are able to establish infection in the presence of vancomycin in vivo. […]

For data set [3] the following is noted: expected serum concentration, from Antimicrobial Agents, Bryskier (2005); cited from earlier work.
The subject of data set [4] is S. aureus (USA300) persister cells. In words: Killing of persister cells by free antibiotics. The note with it: ciprofloxacin-treated cultures, second antibiotic 1 ug/ml. It is filed as cell-based, Staphylococcus aureus. As to the method:
Killing of persisters cells by free antibiotics: S. aureus (USA300) was taken from an overnight stationary phase culture, washed once in Tryptic Soy Broth (TSB) and then adjusted to a final concentration of 1×10^7 CFU/ml in a total volume of 10 mL of either TSB or TSB with ciprofloxicin (0.05 mM). Cultures were incubated with shaking at 37° C. for 6 hours and then the second antibiotic, either rifampicin (1 ug/ml) or another rifamycin-type antibiotic (1 ug/ml) was added. At the indicated times, samples were removed from each culture, washed once with PBS to remove the antibiotic and re-suspended in PBS. The total number of surviving bacteria was determined by plating serial dilutions of the bacteria on agar plates. At the final time point the remainder of each culture was collected and plated.

The mark [5] stands for this setting: extracellular bacteria grown in liquid culture (Tryptic Soy Broth).
[6] abbreviates: bacteria sequestered inside murine macrophages, antibiotics added one day post infection, survivors counted 24 hours later.

Values after ≈ are worked out from the molar mass of the structure shown. Read-outs that look alike come from different tables or passages of the source. Where only a bound is given, the exact number is not on record here.

In the case of `CN[C@H](CC(C)C)C(=O)N[C@H]1C(=O)N[C@@H](CC(N)=O)C(=O)N[C@H]2C(=O)N[C@H]3C(=O)N[C@H](C(=O)N[C@H](C(=O)O)c4cc(O)cc(O)c4-c4cc3ccc4O)[C@H](O)c3ccc(c(Cl)c3)Oc3cc2cc(c3O[C@@H]2O[C@H](CO)[C@@H](O)[C@H](O)[C@H]2O[C@H]2C[C@](C)(N)[C@H](O)[C@H](C)O2)Oc2ccc(cc2Cl)[C@H]1O` [Vancomycin], the results for the MIC in data set [1] and in data set [2] (24 h) were 1 µg/mL (≈ 0.69 µM) and above 100 µg/mL, respectively. Moreover, the “killing of MRSA sequestered inside macrophages” value in data set [2] is reported as “failed to kill”. For the same compound, the “increase of intracellular S. aureus over a 24 hour period” value in the data set with MRSA (MG63 cells, primary human brain endothelial cells, A549 cells, constant exposure to vancomycin) was around 10 fold. In addition, the “survival of intracellular MRSA in the leukocytes” value in the data set on MRSA (MRSA sequestered inside peritoneal cells, vancomycin 5 ug/mL) is “About 15%”. Further, in the data set with MRSA (planktonic bacteria plated on MG63 osteoblasts, vancomycin 5 ug/mL), the “surviving bacteria associated with the MG63 cells one day after infection” value is “approximately 0.06 % of input”. In addition, in the data set with MRSA (vancomycin 5 ug/mL, one day in culture), the “killing of planktonic bacteria exposed to vancomycin alone” value is recorded as “efficiently killed”. In the data set on USA300, the “establishment of infection (kidney, brain) under vancomycin therapy” value is “intracellular bacteria, but not planktonic bacteria, were able to establish infection”. Also, the “Serum Cmax” value in data set [3] is 50 µg/mL.
For `CC(=O)NC[C@H]1CN(c2ccc(N3CCOCC3)c(F)c2)C(=O)O1` [Linezolid], the MIC in data set [1] (setting [5]) was 0.3 µg/mL (≈ 0.889 µM); in data set [2] (setting [6]), above 20 µg/mL. The “killing of MRSA sequestered inside macrophages” value in data set [2] is recorded as “failed to kill”. In data set [3], the “Serum Cmax” value is 20 µg/mL.
Turning to `CO[C@H]1/C=C/O[C@@]2(C)Oc3c(C)c(O)c4c(O)c(c(/C=N/N5CCN(C)CC5)c(O)c4c3C2=O)NC(=O)/C(C)=C\C=C\[C@H](C)[C@H](O)[C@@H](C)[C@@H](O)[C@@H](C)[C@H](OC(C)=O)[C@@H]1C` [Rifampicin], the MIC in data set [1] (setting [5]) was 0.004 µg/mL (≈ 0.00486 µM); in data set [2] (setting [6]), 50 µg/mL (≈ 60.8 µM). In data set [2] (intracellular vs planktonic MRSA USA300), the “higher dose to eliminate intracellular MRSA compared to the dose required to inhibit growth (MIC) of planktonic bacteria” value is 6,000 fold. Also, in data set [4], the “effect on viability of persister cells” value is given as “no effect”.
As for `CCCCCCCCCC(=O)N[C@@H](Cc1c[nH]c2ccccc12)C(=O)N[C@H](CC(N)=O)C(=O)N[C@@H](CC(=O)O)C(=O)N[C@@H]1C(=O)NCC(=O)N[C@@H](CCCN)C(=O)N[C@@H](CC(=O)O)C(=O)N[C@H](C)C(=O)N[C@@H](CC(=O)O)C(=O)NCC(=O)N[C@H](CO)C(=O)N[C@@H]([C@H](C)CC(=O)O)C(=O)N[C@@H](CC(=O)c2ccccc2N)C(=O)O[C@@H]1C` [Daptomycin], the MIC in data set [1] is 4 µg/mL (≈ 2.47 µM); in data set [2] (24 h) it was above 100 µg/mL. Besides, the “killing of MRSA sequestered inside macrophages” value in data set [2] is recorded as “failed to kill”. The “Serum Cmax” value in data set [3] is 60 µg/mL.

These data come from patent US20180021450A1, “ANTI-STAPHYLOCOCCUS AUREUS ANTIBODY RIFAMYCIN CONJUGATES AND USES THEREOF” (Genentech, Inc., priority 2014, published 2018).
